Laboratory results published in ChEMBL document CHEMBL5096162, “A review on ferulic acid and analogs based scaffolds for the management of Alzheimer's disease” (Eur J Med Chem, 2021).

Tests used:
Acetylcholinesterase [1] = target: T1, Acetylcholinesterase (Homo sapiens, UniProt P22303); assay: Inhibition of human AchE preincubated for 6 mins followed by substrate addition and measured upto 3 mins using acetylthiocholine iodide as substrate by Ellman's method
Cholinesterase [2] = target: T2, Cholinesterase (Homo sapiens, UniProt P06276); assay: Inhibition of human BuchE preincubated for 6 mins followed by substrate addition and measured upto 3 mins using acetylthiocholine iodide as substrate by Ellman's method
[3] = Antioxidant activity assessed as trolox equivalent of ABTS radical cation scavenging activity measured after 6 mins by UV spectrophotometeric analysis; type: functional
Cholinesterase [4] = target: T2, Cholinesterase; assay: Inhibition of human BuchE preincubated for 30 mins followed by substrate addition using butyrylthiocholine iodide as substrate by Ellman's method
[5] = Antioxidant activity assessed as ABTS radical cation scavenging activity measured every minute for 15 mins by spectrophotometeric analysis; type: functional
[6] = Antioxidant activity of compound assessed as trolox equivalent of AAPH radical scavenging activity preincubated for 15 mins followed by AAPH addition and measured for 120 mins by ORAC-FL assay; type: functional; settings: time 135.0 min
[7] = Antioxidant activity assessed as DPPH radical scavenging activity measured for 45 mins by spectrophotometric analysis; type: functional
[8] = Antioxidant activity assessed as GO radical cation scavenging activity measured for 30 mins by spectrophotometeric analysis; type: functional
[9] = Metal chelating activity assessed as Fe2+ -ferrozoine complex formation incubated for 10 mins followed by ferrozine addition and further incubated for 10 mins by spectrophotometric assay; settings: time 20.0 min
[10] = Antioxidant activity assessed as trolox equivalent of ORAC radical scavenging activity by ORAC-FL assay; type: functional
SH-SY5Y = assay: Neuroprotective activity against amyloid beta-induced cytotoxicity in human SH-SY5Y cells assessed as cell viability at 10 to 80 uM by MTT assay; type: functional; settings: dose 10-80 µM
Beta-secretase 1 = Beta-secretase 1 (Homo sapiens, UniProt P56817); assay: Inhibition of human BACE-1 by FRET-based fluorometric assay
Cholinesterase [11] = target: T2, Cholinesterase; assay: Inhibition of human BuchE using butyrylthiocholine iodide as substrate by Ellman colorimetric assay
Acetylcholinesterase [12] = target: T1, Acetylcholinesterase; assay: Inhibition of human AchE using acetylthiocholine iodide as substrate by Ellman colorimetric assay
Cholinesterase [13] = target: T3, Cholinesterase (Equus caballus, UniProt P81908); assay: Inhibition of equine serum BuChE preincubated for 5 mins followed by substrate addition and measured after 5 mins using S-butyrylthiocholine iodide as substrate by Ellman's method
[14] = Antioxidant activity assessed as DPPH radical scavenging activity measured for 30 mins in dark by UV-Vis spectrophotometric analysis; type: functional
[15] = Antioxidant activity of compound assessed as trolox equivalent of AAPH radical scavenging activity preincubated for 15 mins followed by AAPH addition and measured every 1 min for 60 mins by ORAC-FL assay; type: functional; settings: time 75.0 min
[16] = Antioxidant activity assessed as DPPH radical scavenging activity at 200 uM incubated for 2 hrs in dark by spectrophotometric analysis; type: functional
Cholinesterase [17] = target: T3, Cholinesterase; assay: Inhibition of equine BuChE by Ellman's method
[18] = Antioxidant activity assessed as DPPH radical scavenging activity at 1 mM incubated for 30 mins by microplate reader method; type: functional
Acetylcholinesterase [19] = target: Acetylcholinesterase (Electrophorus electricus, UniProt O42275); assay: Inhibition of electric eel AChE preincubated for 15 mins followed by substrate addition using acetylthiocholine iodide as substrate by Ellman's method
[20] = target: Amyloid-beta precursor protein (Homo sapiens) (UniProt P05067); assay: Inhibition of amyloid beta (1 to 42) (unknown origin) self aggregation assessed as reduction in fluorescence intensity at 80 uM incubated for 24 hrs by ThT-based fluorimetric assay
Cholinesterase [21] = target: T3, Cholinesterase; assay: Inhibition of equine serum BuchE preincubated for 6 mins followed by substrate addition using butyrylthiocholine iodide as substrate by DTNB reagent based Ellman method
[22] = target: Amyloid-beta precursor protein (Homo sapiens) (UniProt P05067); assay: Inhibition of self-induced amyloid beta (1 to 42) (unknown origin) aggregation at 20 uM incubated for 46 to 48 hrs in dark by ThT-based fluorimetric assay; settings: time 46-48 hrs
Cholinesterase [23] = target: T2, Cholinesterase
Description: Inhibition of human BuchE preincubated for 6 mins followed by substrate addition using butyrylthiocholine iodide as substrate by DTNB reagent based Ellman method

T3 sequence (P81908 whole entry): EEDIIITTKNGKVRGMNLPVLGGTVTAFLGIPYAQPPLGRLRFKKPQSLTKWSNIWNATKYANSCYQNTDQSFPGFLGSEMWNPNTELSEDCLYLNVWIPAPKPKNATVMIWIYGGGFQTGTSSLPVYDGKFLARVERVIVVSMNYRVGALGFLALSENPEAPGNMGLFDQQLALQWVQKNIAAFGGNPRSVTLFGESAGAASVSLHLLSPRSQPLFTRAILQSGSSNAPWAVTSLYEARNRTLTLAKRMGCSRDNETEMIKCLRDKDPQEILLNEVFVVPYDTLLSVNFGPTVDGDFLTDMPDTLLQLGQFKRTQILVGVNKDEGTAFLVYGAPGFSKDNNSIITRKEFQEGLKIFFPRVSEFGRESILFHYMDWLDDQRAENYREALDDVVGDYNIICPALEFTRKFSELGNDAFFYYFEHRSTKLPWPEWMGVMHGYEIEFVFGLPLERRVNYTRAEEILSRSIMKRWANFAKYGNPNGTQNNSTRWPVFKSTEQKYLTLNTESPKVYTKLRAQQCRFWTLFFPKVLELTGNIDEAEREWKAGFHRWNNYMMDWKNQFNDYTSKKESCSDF
T2 sequence (P06276 whole entry): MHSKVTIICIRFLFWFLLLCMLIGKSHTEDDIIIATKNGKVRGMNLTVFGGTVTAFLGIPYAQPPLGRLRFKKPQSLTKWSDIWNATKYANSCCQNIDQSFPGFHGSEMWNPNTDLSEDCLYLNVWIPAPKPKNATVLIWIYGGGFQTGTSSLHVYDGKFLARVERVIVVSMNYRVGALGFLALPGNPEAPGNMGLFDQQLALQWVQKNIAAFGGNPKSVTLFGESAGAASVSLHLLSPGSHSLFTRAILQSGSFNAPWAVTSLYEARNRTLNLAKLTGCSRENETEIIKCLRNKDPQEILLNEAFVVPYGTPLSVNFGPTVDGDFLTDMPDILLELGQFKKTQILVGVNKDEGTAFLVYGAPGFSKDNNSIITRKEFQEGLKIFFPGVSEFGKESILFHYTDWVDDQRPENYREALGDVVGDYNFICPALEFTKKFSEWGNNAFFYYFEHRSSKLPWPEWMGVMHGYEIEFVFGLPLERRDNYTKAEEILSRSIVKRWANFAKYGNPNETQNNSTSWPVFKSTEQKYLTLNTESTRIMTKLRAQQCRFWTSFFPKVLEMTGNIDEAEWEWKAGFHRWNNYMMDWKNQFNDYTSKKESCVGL
Chain of Amyloid-beta precursor protein (Homo sapiens) (P05067 whole entry): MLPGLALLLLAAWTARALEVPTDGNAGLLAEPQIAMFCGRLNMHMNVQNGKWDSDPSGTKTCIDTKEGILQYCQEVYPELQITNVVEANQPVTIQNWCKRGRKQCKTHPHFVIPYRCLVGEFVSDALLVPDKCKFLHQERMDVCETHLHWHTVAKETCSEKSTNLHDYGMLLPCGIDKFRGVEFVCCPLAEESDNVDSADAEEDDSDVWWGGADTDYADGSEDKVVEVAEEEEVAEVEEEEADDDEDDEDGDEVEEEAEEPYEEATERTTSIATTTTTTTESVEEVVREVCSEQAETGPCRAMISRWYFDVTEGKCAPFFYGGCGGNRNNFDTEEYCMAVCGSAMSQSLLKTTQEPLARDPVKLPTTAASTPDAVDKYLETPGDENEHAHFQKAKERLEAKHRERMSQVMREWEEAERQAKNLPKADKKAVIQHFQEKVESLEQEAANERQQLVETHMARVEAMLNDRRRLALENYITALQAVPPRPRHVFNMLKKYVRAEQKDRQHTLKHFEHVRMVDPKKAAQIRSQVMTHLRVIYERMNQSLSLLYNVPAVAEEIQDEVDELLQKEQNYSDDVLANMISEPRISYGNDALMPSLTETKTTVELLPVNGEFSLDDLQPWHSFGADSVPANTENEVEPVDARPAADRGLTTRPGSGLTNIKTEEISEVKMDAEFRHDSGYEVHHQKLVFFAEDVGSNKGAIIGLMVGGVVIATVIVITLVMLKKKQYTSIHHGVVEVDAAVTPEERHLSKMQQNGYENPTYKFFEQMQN
T1 sequence (P22303 whole entry): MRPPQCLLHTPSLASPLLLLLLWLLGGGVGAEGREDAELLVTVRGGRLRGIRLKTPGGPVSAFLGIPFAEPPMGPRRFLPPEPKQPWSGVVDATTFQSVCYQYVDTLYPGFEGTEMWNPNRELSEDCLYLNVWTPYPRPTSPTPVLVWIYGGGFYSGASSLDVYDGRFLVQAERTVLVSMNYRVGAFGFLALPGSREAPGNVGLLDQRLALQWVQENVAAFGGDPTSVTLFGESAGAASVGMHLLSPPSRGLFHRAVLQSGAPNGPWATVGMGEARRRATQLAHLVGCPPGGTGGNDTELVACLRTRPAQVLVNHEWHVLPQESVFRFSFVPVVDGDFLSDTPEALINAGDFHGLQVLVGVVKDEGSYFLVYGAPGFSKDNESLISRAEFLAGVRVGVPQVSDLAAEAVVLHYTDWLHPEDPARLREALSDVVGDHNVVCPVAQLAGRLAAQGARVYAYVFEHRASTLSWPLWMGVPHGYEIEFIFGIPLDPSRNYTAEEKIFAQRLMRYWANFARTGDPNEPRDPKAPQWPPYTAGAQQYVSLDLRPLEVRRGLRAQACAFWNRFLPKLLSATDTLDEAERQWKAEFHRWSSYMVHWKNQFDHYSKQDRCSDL
Chain of Acetylcholinesterase (Electrophorus electricus, UniProt O42275) (O42275 whole entry): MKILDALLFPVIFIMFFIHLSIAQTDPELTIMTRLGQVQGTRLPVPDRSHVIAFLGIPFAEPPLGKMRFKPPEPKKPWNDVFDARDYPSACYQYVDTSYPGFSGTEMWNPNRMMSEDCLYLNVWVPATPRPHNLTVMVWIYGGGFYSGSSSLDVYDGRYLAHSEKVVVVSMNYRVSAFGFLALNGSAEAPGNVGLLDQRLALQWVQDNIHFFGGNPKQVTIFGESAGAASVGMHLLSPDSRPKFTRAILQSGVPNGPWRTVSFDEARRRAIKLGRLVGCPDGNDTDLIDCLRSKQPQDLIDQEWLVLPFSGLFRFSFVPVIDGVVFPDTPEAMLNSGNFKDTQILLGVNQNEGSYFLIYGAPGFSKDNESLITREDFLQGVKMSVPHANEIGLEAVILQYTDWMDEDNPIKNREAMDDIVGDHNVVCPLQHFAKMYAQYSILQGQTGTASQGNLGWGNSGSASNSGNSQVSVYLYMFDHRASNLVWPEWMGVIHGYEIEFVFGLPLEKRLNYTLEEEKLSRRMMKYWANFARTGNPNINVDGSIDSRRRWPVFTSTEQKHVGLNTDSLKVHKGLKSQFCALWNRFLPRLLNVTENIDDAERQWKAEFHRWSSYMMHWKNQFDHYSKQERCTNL
Chain of Beta-secretase 1 (P56817 whole entry): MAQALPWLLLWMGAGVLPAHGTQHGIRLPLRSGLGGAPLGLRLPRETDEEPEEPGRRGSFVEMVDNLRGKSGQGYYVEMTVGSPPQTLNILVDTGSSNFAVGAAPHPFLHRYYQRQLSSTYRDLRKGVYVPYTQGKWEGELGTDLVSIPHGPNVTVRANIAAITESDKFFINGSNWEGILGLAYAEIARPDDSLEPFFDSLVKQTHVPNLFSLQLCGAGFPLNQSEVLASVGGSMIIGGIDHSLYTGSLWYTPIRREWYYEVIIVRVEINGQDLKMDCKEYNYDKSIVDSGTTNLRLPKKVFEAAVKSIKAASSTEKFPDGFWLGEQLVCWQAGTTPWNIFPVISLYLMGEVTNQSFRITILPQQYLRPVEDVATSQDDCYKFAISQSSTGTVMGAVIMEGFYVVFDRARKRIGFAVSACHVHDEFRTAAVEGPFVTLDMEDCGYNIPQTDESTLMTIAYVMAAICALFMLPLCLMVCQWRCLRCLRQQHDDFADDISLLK

COc1cc(/C=C/C(=O)OCCCCCN(C)Cc2cccc(OC(=O)N(C)C)c2)ccc1O
IC50 (Acetylcholinesterase [1]): 19.7 nM
IC50 (Cholinesterase [2]): 0.59 nM
Activity [3]: 1.26 µM

O=C(CCCCC1CCSS1)O[C@H]1C[C@H]2O[C@H](OC(=O)NCc3ccccc3)C[C@H]2O1 (stereo partly drawn)
IC50 (Cholinesterase [4]): 150 nM

COc1cc(/C=C/C(=O)O)ccc1O [FERULATE]
IC50 [5]: 16800 nM
Activity [6]: 0.34
IC50 [7]: 64600 nM
IC50 [8]: 37500 nM
Activity [9]: 8.9%

COCCCCCCCCCCCCCCCCCCOC(=O)/C=C/c1ccc(O)c(OC)c1
Activity [9]: 77.9%

COc1cc(/C=C/C(=O)O[C@H]2C[C@H]3O[C@H](OC(=O)NCc4ccccc4)C[C@H]3O2)ccc1O
Activity [10]: 0.635 equiv

COc1cc(/C=C/c2nnc(-c3ccc(C(F)(F)F)cc3)o2)ccc1O
Activity (SH-SY5Y): 70.45%
IC50 (Beta-secretase 1): 255 nM
IC50 (Cholinesterase [11]): 255 nM
IC50 (Acetylcholinesterase [12]): 68 nM

O=C(/C=C/c1cc(O)c(O)c(O)c1)NCCCCCC[P+](c1ccccc1)(c1ccccc1)c1ccccc1
IC50 (Cholinesterase [13]): 110 nM

O=C(/C=C/c1ccc(O)c(O)c1)Nc1cccc2ccccc12
IC50 [14]: 20800 nM

CCCCNC(=O)O[C@@H]1C[C@H]2O[C@@H](OC(=O)/C=C/c3ccc(O)c(OC)c3)C[C@H]2O1
IC50 (Cholinesterase [4]): 430 nM

COc1cc(/C=C/C(=O)O)ccc1S
IC50 [5]: 19900 nM
Activity [6]: 0.34
IC50 [7]: 47800 nM
IC50 [8]: 4250 nM

O=C(NCc1ccccc1)C(c1ccnc2ccccc12)N(Cc1ccccc1)C(=O)/C=C/c1ccc(O)c(O)c1 (stereo not drawn)
Activity [15]: 4.98 equiv
Activity [16]: > 77%

COc1ccc2[nH]cc(CCNC(=O)CN(CCC3CCN(Cc4ccccc4)CC3)C(=O)/C=C/c3ccc(O)c(OC)c3)c2c1
IC50 (Cholinesterase [17]): 10.4 nM
Activity [10]: 8.71 equiv

C=CCc1ccc(OC(=O)/C=C/c2ccc(O)c(O)c2)c(OC)c1
IC50 [14]: 11200 nM

O=C(/C=C/CCc1ccc2c(c1)OCO2)NCCCNc1c2c(nc3ccccc13)CCCC2
Activity [18]: 20.8%
IC50 (Acetylcholinesterase [19]): 130 nM
inhibition [20]: 72.2%

COc1ccc(/C=C/C(=O)Nc2cc[n+](Cc3cccc(F)c3)cc2)cc1OC
IC50 (Cholinesterase [21]): 3.1 nM
inhibition [22]: 63.4%
IC50 (Cholinesterase [23]): 4.8 nM
